Source: ChEMBL document CHEMBL5357018, “Discovery of Malarial Threonyl tRNA Synthetase Inhibitors by Screening of a Focused Fragment Library” (ACS Med Chem Lett, 2024)

molecular target: T1, threonine--tRNA ligase (Plasmodium falciparum, UniProt Q8IIA4)
T1 sequence (Q8IIA4 whole entry): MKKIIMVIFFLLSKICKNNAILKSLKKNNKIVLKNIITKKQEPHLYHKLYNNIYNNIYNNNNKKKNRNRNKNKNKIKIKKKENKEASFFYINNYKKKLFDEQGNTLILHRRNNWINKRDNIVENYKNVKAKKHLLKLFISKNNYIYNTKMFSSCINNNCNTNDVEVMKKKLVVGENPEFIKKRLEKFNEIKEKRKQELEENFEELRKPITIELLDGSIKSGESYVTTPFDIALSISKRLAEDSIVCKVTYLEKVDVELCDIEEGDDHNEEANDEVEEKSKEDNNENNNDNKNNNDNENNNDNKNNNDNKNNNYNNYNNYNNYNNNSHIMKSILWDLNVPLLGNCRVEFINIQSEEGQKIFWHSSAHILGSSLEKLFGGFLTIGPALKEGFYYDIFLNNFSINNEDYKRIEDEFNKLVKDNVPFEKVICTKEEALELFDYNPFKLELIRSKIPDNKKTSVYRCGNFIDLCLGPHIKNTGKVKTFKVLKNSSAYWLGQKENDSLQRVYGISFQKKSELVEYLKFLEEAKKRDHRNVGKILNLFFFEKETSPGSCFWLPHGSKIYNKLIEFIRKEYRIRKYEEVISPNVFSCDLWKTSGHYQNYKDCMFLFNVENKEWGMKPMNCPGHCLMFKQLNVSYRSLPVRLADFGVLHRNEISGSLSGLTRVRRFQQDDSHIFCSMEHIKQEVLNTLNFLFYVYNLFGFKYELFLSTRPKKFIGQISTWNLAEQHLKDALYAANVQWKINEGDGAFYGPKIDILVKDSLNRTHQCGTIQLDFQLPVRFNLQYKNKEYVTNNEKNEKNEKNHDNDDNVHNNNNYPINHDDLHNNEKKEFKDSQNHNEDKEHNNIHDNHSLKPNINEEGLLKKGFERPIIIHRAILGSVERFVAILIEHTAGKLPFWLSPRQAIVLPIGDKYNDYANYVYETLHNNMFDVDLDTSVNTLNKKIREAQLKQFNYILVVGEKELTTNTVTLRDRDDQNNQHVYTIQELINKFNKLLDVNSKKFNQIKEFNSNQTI

Question: Which Ki does the source give for `C[C@@H]1C[C@H](C)C[C@H](C)[C@@H](O)CC(=O)O[C@H]([C@@H]2CCC[C@H]2C(=O)O)C/C=C/C=C(/C#N)[C@H](O)[C@@H](C)C1` [BORRELIDIN] here?
Answer: 160 nM

molecular target: T1, threonine--tRNA ligase; experiment: Inhibition of Plasmodium falciparum Threonyl tRNA synthetase

Question: Which IC50 does the source give for `C[C@@H](O)[C@H](N)C(=O)NS(=O)(=O)OC[C@H]1O[C@@H](n2cnc3c(N)ncnc32)[C@H](O)[C@@H]1O` here?
Answer: 160 nM

Question: With `C[C@@H](O)[C@H](N)C(=O)NS(=O)(=O)/C=C/c1cccc(-c2cc(N)ncn2)c1` as the compound, how does the IC50 read?
Answer: 57 nM

Question: For `C[C@@H](O)[C@H](N)C(=O)NS(=O)(=O)/C=C/c1ccccc1`, which IC50 is on record?
Answer: 33000 nM

Question: `C[C@@H](O)[C@H](N)C(=O)NP(=O)(O)OC[C@@H]1C[C@H](O)[C@H](n2cnc3c(N)ncnc32)O1` was tested. Which IC50 did it give?
Answer: 440 nM

Question: How did the IC50 turn out when `C[C@@H]1C[C@H](C)C[C@H](C)[C@@H](O)CC(=O)O[C@H]([C@@H]2CCC[C@H]2C(=O)O)C/C=C/C=C(/C#N)[C@H](O)[C@@H](C)C1` [BORRELIDIN] was run?
Answer: 43 nM

molecular target: T1, threonine--tRNA ligase; remark: another data set of the same source
Description: Inhibition of 6xHis-tag recombinant Plasmodium falciparum threonyl tRNA synthetase expressed in Escherichia using L-threonine and total tRNA by luminescence based assay

Question: `C[C@@H](O)[C@H](N)C(=O)NS(=O)(=O)Oc1ccccc1` was tested. Which IC50 did it give?
Answer: 51000 nM

Question: `C[C@@H](O)[C@H](N)C(=O)NS(=O)(=O)c1nc2cc(-c3cc(N)ncn3)ccc2s1` was tested. Which IC50 did it give?
Answer: 100 nM

Question: How did the IC50 turn out when `C[C@@H](O)[C@H](N)C(=O)NS(=O)(=O)Oc1cccc2ccccc12` was run?
Answer: 36000 nM

Question: Which IC50 does the source give for `C[C@@H](O)[C@H](N)C(=O)NS(=O)(=O)c1nc2ccccc2s1` here?
Answer: 71000 nM

Question: How did the IC50 turn out when `C[C@@H](O)[C@H](N)C(=O)NS(=O)(=O)Oc1cccc2cccnc12` was run?
Answer: 55000 nM

Question: How did the IC50 turn out when `C[C@@H](O)[C@H](N)C(=O)NS(=O)(=O)Oc1cccc2nn(-c3cc(N)ncn3)cc12` was run?
Answer: 700 nM

Question: With `C[C@@H](O)[C@H](N)C(=O)NS(=O)(=O)Oc1ccc(-c2cc(N)ncn2)cc1` as the compound, how does the IC50 read?
Answer: 800 nM

Question: For `C[C@@H](O)[C@H](N)C(=O)NS(=O)(=O)Oc1ccc2ccccc2c1`, which IC50 is on record?
Answer: 30000 nM
